The values below come from patent publication US6936602B1, “Benzazepine derivatives, process for the preparation of the same and uses thereof” (Takeda Chemical Industries, Ltd., priority 1999, dated 2005).

For series [1], the target named is T1, human CCR5 (Homo sapiens, UniProt P51681).
T1 construct: expressed in transfected cells
Kind of series: Evaluation of test compounds based on CCR5 antagonistic activity: inhibition of [125I]-RANTES binding to CCR5/CHO cells. To be noted: Test Compound 1 μM, 100 pM [125I]-RANTES, room temperature for 40 minutes, read-out: Inhibitory Rate (%).

In series [2] the test system is HIV-1 BA-L. Kind of series: Inhibitory effect on HIV-1 infection to MAGI-CCR5 cell (β-galactosidase blue cell count). The format is cell-based. Conditions: 100 μl medium containing 1.6 μM of Test Compound + 100 μl medium containing 300 PFU of HIV-1 BA-L; MAGI-CCR5 cells; 37° C. for 2 days. As for the experimental part:
(5) Inhibitory Effect on HIV-1 Infection to MAGI-CCR5 Cell
The plasmid where β-galactosidase gene was ligated downstream of HIV-1 LTR was introduced into CD4 positive HeLa cell, to which human CCR5 was further introduced to obtain transformant MAGI-CCR5.
By using said transformant MAGI-CCR5, a degree of HIV-1 infection was calculated using β-galactosidase activity (blue color due to decomposition of 5-bromo-4-chloro-3-indolyl-β-D-galactopyranoside) as an index. Specifically, MAGI-CCR5 cells were suspended in DMEM medium containing 10% serum to prepare 5×10^4 cells/ml suspension. To each well of 96 well plate was inoculated 200 μl of the suspension, and the cells were cultivated at 37° C. overnight. The medium was removed by means of suction, and to the residue was added 100 μl of the above medium containing 1.6 μM of Test Compound and 100 μl of the above medium containing 300 PFU of HIV-1 BA-L cells. The cells were cultivated at 37° C. for 2 days. The medium was removed by means of suction. To the residue was added 200 μl of a cell fixative (PBS containing 1% formaldehyde and 0.2% glutaraldehyde), and the mixture was allowed to stand at room temperature for 5 minutes and washed twice with PBS. To the mixture was added 100 μl of staining solution (PBS containing […] and 0.4 mg/ml X-gal), and the mixture was allowed to stand at 37° C. for 50 minutes and washed twice with PBS. The number of blue cells was counted by a microscope and defined as the number of cells infected with HIV-1. According to this method, inhibition rate of HIV-1 infection was determined.

T1 sequence (P51681 whole entry): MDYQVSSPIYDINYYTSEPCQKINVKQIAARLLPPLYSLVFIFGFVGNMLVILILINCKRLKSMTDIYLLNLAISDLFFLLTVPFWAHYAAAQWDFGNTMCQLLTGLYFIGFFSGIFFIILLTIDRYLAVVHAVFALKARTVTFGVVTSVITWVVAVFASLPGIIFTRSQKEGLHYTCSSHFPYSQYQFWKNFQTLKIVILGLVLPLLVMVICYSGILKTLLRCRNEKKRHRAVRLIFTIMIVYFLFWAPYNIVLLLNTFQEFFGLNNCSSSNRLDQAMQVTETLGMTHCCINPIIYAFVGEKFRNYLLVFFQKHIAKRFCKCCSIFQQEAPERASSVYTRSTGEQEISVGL

As a reminder, the melting point is the temperature of the solid-liquid transition. `CCCOCCOc1ccc(-c2ccc3c(c2)C=C(C(=O)Nc2ccc(CN(C)C4CCOCC4)cc2)CCN3CC)cc1` [Compound 17, 1-ethyl-N-[4-[[N-methyl-N-(tetrahydro-2H-pyran-4-yl)amino]methyl]phenyl]-7-[4-(2-propoxyethoxy)phenyl)-2,3-dihydro-1H-1-benzazepine-4-carboxamide] registered a melting point of 106 to 108 °C. The inhibition at 1 µM in series [1] was 99%. For the same compound, the “Inhibitation Rate (%)” value in series [2] came to 94%.
